Consider 4 compounds from patent publication US9238020B2, “Compositions comprising enzyme-cleavable phenol-modified tapentadol prodrug” (priority 2010, dated 2016).

Data set [1] can be described thus: Oral administration of tapentadol prodrugs with or without co-dose of trypsin inhibitor Compound 109 to rats. The data set is classed as in vivo, rat. As to conditions: by suppressing Cmax and AUC and/or delaying Tmax. The method, then:
Saline solutions of Compound TP-1 (which can be prepared as described in the examples herein) were dosed at 39 μmol/kg (25 mg/kg) with or without a co-dose of 55 μmol/kg (30 mg/kg) Compound 109 (Catalog No. 3081, Tocris Bioscience, Ellisville, Mo., USA or Catalog No. WS38665, Waterstone Technology, Carmel, Ind., USA) as indicated in Table 3 via oral gavage into jugular vein-cannulated male Sprague Dawley rats (4 per groups) that had been fasted for 16-18 hr prior to oral dosing. At specified time points, blood samples were drawn, harvested for plasma via centrifugation at 5,400 rpm at 4° C. for 5 min, and 100 μl plasma transferred from each sample into a fresh tube containing 2 μl of 50% formic acid. The tubes were vortexed for 5-10 seconds, immediately placed in dry ice and then stored in a −80° C. freezer until analysis by HPLC/MS.
Table 3 and FIG. 5 provide tapentadol exposure results for rats administered with Compound TP-1 in the absence or presence of trypsin inhibitor.
Saline solutions of Compound TP-3 or Compound TP-4 (which can be prepared as described in the examples herein) were dosed as indicated in Table 9 and according to the procedures as described in Example 13. Sampling and analysis procedures were as described in Example 13. […]

Data set [2] is described as follows: Pharmacokinetics of tapentadol release following PO administration of prodrugs or tapentadol to rats. It counts as in vivo, rat. As to conditions: approximately equimole amounts. As to the method: Saline solutions of Compound TP-1 (which can be prepared as described in the examples herein) were dosed as indicated in Table 1 via oral gavage into 4 jugular vein-cannulated male Sprague Dawley rats that had been fasted for 16-18 hr prior to oral dosing. At specified time points, blood samples were drawn, harvested for plasma via centrifugation at 5,400 rpm at 4° C. for 5 min, and 100 microliters (μl) plasma transferred from each sample into a fresh tube containing 2 μl of 50% formic acid. The tubes were vortexed for 5-10 seconds, immediately placed in dry ice and then stored in a −80° C. freezer until analysis by HPLC/MS.
Saline solutions of Compounds TP-1, TP-3, TP-4, (which can be prepared as described in the examples herein) or tapentadol were dosed in approximately equimole amounts as indicated in Table 6. Dose administration, sampling and analysis procedures were as described in Example 11.
Dosing, sampling and analysis procedures were as described in Example 11.

The nature of data set [3]: Pharmacokinetics of prodrug and tapentadol following IV administration to rats. The settings on record: male, Sprague Dawley, in vivo; Table 7; prodrug in rat plasma; IV 2 mg/kg; read-out: Prodrug Cmax ± sd. The method, then:
Compound TP-1 (which can be prepared as described in the examples herein) was dissolved in saline and injected into the tail vein of 4 jugular vein-cannulated male Sprague Dawley rats at a dose of 2 mg/kg. At specified time points, blood samples were drawn, harvested for plasma via centrifugation at 5,400 rpm at 4° C. for 5 min, and 100 μl plasma transferred from each sample into a fresh tube containing 2 μl of 50% formic acid. The tubes were vortexed for 5-10 seconds, immediately placed in dry ice and then stored in a −80° C. freezer until analysis by high performance liquid chromatography/mass spectrometry (HPLC/MS).
Table 2 and FIG. 4 provide Compound TP-1 and tapentadol exposure results for rats administered Compound TP-1 intravenously. Results in Table 2 are reported as maximum plasma concentration (Cmax) of Compound TP-1 and tapentadol (TP), respectively, (average±standard deviation).
Compound TP-3 or Compound TP-4 (which can be prepared as described in the examples herein), or tapentadol were dissolved in saline and injected into the tail vein of four jugular vein-cannulated male Sprague Dawley rats at a dose of 2 mg/kg. Sampling and analysis procedures were as described in Example 12.

The target of another data set is T1, trypsin (Bos taurus, UniProt P00760).
T1 construct: purchased Sigma-Aldrich T8003; host or cells: bovine pancreas
T1 sequence (P00760 24-246): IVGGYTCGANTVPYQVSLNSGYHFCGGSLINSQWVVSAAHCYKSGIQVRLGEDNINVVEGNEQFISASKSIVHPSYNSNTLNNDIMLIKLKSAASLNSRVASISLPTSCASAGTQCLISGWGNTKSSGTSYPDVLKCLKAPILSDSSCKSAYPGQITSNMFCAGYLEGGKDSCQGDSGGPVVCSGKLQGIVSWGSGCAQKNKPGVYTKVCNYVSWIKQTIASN
The data set is described as follows: In vitro trypsin conversion of prodrug to tapentadol and inhibition thereof by Compound 109. As to conditions: bovine, trypsin from bovine pancreas, Table 8, 4815 BAEE U trypsin/mL, read-out: Pro-drug trypsin half-life, Average ± sd (converted). It counts as biochemical, bovine. As to the method: (§1) Compound TP-1 was incubated with trypsin from bovine pancreas (Catalog No. T8003, Type I, ˜10,000 BAEE units/mg protein, Sigma-Aldrich). Specifically, the reactions included 0.761 nM of Compound TP-1•2HCl, 22.5 mM calcium chloride, 40 to 172 mM Tris pH 8 and 0.25% DMSO with the BAEE units of trypsin indicated in Table 4. The reactions were conducted at 37° C. for 24 hr. Samples were collected at specified time points, transferred into 0.5% formic acid in acetonitrile to stop trypsin activity and stored at less than −70° C. until analysis by LC-MS/MS.
(§2) Compound TP-1 was also incubated in the presence of 2 micromolar (μM) trypsin inhibitor Compound 109. In that case, Compound TP-1 was added 5 min after the other incubation components. Other reaction and sample treatment conditions were as described above.
(§3) Table 4 indicates the results of exposure of Compound TP-1 to trypsin in the absence or presence of trypsin inhibitor. The results are expressed as half-life of prodrug when exposed to trypsin (i.e., Prodrug trypsin half-life) in hours and rate of tapentadol (TP) formation in umol/h/BAEE U trypsin.
(§4) Compound TP-1, Compound TP-3, or Compound TP-4 (which can be prepared as described in the examples herein) were incubated in the absence or presence of Compound 109 as shown in Table 8. Incubations and analysis procedures were as described in Example 14.

Data set [4] addresses T2, trypsin from bovine pancreas (Bos taurus, UniProt P00760).
T2 construct: purchased Sigma-Aldrich T8003; host or cells: bovine pancreas
T2 sequence (P00760 24-246): T1 sequence (P00760 24-246)
The data set is described as above. It counts as biochemical. The settings on record: Table 8, 4815 BAEE U trypsin/mL. The method, then: as §1, §2, §3, §4

For data set [5], the system named is norepinephrine uptake into rat hypothalamus synaptosomes. The data set is described as follows: In vitro functional norepinephrine uptake assay. The data set is classed as biochemical. The method, then:
The general procedure follows the protocol described by S. Perovic and W. E. G. Muller, 1995, Arzneim-Forsch. Drug Res. 45, 1145-1148. More specifically, the assays included each of the compounds indicated in Table 13 and rat hypothalamus synaptosomes incubated with 0.2 μCi/mL [^3H] norepinephrine. For a control reaction, protriptyline was used. The reaction mixtures were incubated at 37° C. for 20 min, and the reaction product of [^3H] norepinephrine incorporation into the synaptosomes was measured by scintillation counting. IC50 values (concentration causing a half-maximal inhibition of control specific activity) were determined by non-linear regression fit using Hill plot software.

Data set [6] in a line: Plasma and cerebrospinal fluid penetration following IV administration to rats. It counts as in vivo, rat. The settings on record: rats, IV, 2 minutes after dosing. As to the method:
Compound TP-1 (which can be prepared as described in the examples herein) at a dose of 10 mg/kg, or tapentadol, at a dose of 4 mg/kg, were dissolved in saline and injected into the tail vein of 4 male Sprague Dawley rats. These doses represent approximately equimole amounts. After 2 minutes, the rats were anesthetized by carbon dioxide asphyxiation, blood samples were drawn and harvested for plasma by centrifugation at 5,400 rpm at 4° C. for 5 min, and 100 μl plasma was transferred from each sample into a fresh tube containing 2 μl of 50% formic acid. The CSF fluid was collected using a 22×1 inch gauge needle connected to polyurethane catheter type MRE-040 tubing (Braintree Scientific, Inc., Braintree, Mass.). The needle was inserted just below the nuchal crest at the area of the foramen magnum, and clear CSF fluid was collected into the catheter and transferred into a collection tube. The CSF samples were centrifuged at 5,400 rpm at 4° C. for 5 min, and 100 μl CSF fluid was transferred from each sample into a fresh tube. The plasma and CSF samples were immediately placed in dry ice and then stored in a −80° C. freezer until analysis by high performance liquid chromatography/mass spectrometry (HPLC/MS). In order to study Compound TP-1 and tapentadol plasma and CSF penetration over time, additional groups of 4 rats were administered compounds as described above and anesthetized at specified time points. Plasma and CSF were collected and analyzed as described above.
Results in Table 14 are reported, for each group of four rats, as mean concentrations of the indicated compounds in plasma or CSF. Table 14 also provides the plasma-to-CSF (plasma/CSF) partitioning coefficient, i.e., the ratio of concentration in the plasma to concentration in the CSF of the indicated compounds.

The target in a further data set is human μ-opioid receptor (Homo sapiens, UniProt P35372). The data set is described as follows: In vitro human μ-opioid receptor agonist cellular functional assay (cAMP, CHO cells). The settings on record: CHO cells expressing human μ-opioid receptor, 37° C., 10 min. Also on record: expressed in transfected cells. The data set is classed as cell-based. As to the method: The general procedure follows the protocol described by J.-B. Wang, et al, ibid. More specifically, the assay included as appropriate, Compound TP-1 or tapentadol and recombinant Chinese hamster ovary (CHO) cells expressing the human μ-opioid receptor on their cell surfaces. The control reaction included 1 μM DAMGO. The reaction mixtures were incubated at 37° C. for 10 min, and the reaction product was cyclic AMP (cAMP). The samples were submitted to homogeneous time resolved fluorescence (HTRF®). EC50 values (concentration producing a half-maximal specific response) were determined by non-linear regression fit using Hill plot software.
Chain of human μ-opioid receptor (P35372 whole entry): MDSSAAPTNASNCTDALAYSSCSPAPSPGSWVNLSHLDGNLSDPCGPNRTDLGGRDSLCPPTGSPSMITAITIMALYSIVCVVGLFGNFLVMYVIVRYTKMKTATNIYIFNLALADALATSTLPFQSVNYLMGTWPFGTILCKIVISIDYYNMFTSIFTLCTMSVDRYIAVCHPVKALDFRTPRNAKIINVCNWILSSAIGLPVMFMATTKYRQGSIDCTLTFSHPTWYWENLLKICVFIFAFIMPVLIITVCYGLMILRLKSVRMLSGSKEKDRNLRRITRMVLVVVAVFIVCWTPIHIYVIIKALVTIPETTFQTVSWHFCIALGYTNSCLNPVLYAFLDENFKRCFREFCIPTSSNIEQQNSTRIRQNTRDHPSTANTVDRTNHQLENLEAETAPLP

Where [7] appears, read: pH 8, with Compound 109 (trypsin inhibitor), Compound 109 40 μM.
The mark [8] stands for this setting: TP-1 10 mg/kg, tapentadol 4 mg/kg.

One may read the Cmax as the maximum level reached in the sampled fluid or tissue. By half-life is commonly meant the time needed for the level to fall by half in the phase considered. As a reminder, the IC50 is the concentration needed to halve the response being measured. Lower therefore signals greater potency in that assay.

“Also recorded” adds a separate entry of the source. Where a name gives a salt, the structure may show the parent alone. Read-outs that look alike come from different tables or passages of the source.

Turning to `N=C(N)c1ccc2cc(OC(=O)c3ccc(N=C(N)N)cc3)ccc2c1` [Compound 109, 6-carbamimidoylnaphthalen-2-yl 4-(diaminomethyleneamino)benzoate], the “effect of co-dosed Compound 109 on release of tapentadol from prodrug” value in data set [1] is “attenuates Compound TP-1's ability to release tapentadol; also recorded: attenuates the abilities of both Compound TP-3 and Compound TP-4 to release tapentadol; also recorded: can attenuate the abilities of both Compound TP-1 and Compound TP-3 to release tapentadol”.
Take `CC[C@@H](c1cccc(OC(=O)N(C)CCNC(=O)[C@H](CCCCN)NC(=O)CC(=O)O)c1)[C@@H](C)CN(C)C` [Compound TP-3, N—[(S)-5-Amino-1-(2-{[3-((1R,2R)-3-dimethylamino-1-ethyl-2-methyl-propyl)-phenoxycarbonyl]-methyl-amino}-ethylcarbamoyl)-pentyl]-malonamic acid]: the “tapentadol plasma concentration profile compared to administration of tapentadol” value in data set [2] is “suppressed Cmax and delayed Tmax”. Also, in data set [3], the highest concentration (Cmax) was 1460 ± 99 ng/mL. Also, the half-life at 0.761 nM on trypsin (setting [7]) is 12.2 ± 0.33 h; at trypsin (pH 8, Compound 109 0 μM) it was 0.271 ± 0.0023 h. Moreover, the “Rate of TP formation, Average ± sd” value in data set [4] (Compound 109 0 μM) is 0.0258 ± 0.0024 umol/h/BAEE U; in data set [4] (Compound 109 40 μM) it was 0.0048 ± 0.0000 umol/h/BAEE U.
On to `CC[C@@H](c1cccc(OC(=O)N(C)CC(C)(C)CNC(=O)[C@H](CCCNC(=N)N)NC(=O)CC(=O)O)c1)[C@@H](C)CN(C)C` [Compound TP-4, N—[(S)-1-(3-{[3-((1R,2R)-3-Dimethylamino-1-ethyl-2-methyl-propyl)-phenoxycarbonyl]-methyl-amino}-2,2-dimethyl-propylcarbamoyl)-4-guanidino-butyl]-malonamic acid], for which the “tapentadol plasma concentration profile compared to administration of tapentadol” value in data set [2] was “suppressed Cmax and delayed Tmax”. The Cmax in data set [3] came out at 988 ± 89 ng/mL. Besides, the half-life at 0.761 nM was 1.76 ± 0.22 h on trypsin (setting [7]) and 0.0823 ± 0.0028 h on trypsin (pH 8, Compound 109 0 μM). Besides, the “Rate of TP formation, Average ± sd” value in data set [4] (Compound 109 0 μM) was 0.0753 ± 0.0007 umol/h/BAEE U; in data set [4] (Compound 109 40 μM), 0.028 ± 0.0004 umol/h/BAEE U.
On to `CC[C@@H](c1cccc(O)c1)[C@@H](C)CN(C)C` [Tapentadol, 3-[(1R,2R)-3-(dimethylamino)-1-ethyl-2-methylpropyl]phenol hydrochloride], for which the IC50 in data set [5] ([3H] norepinephrine incorporation into rat hypothalamus synaptosomes, 37° C., 20 min) was 390 nM. Moreover, in data set [5] (rat hypothalamus synaptosomes), the “activity as a norepinephrine reuptake inhibitor” value is recorded as “has activity as a norepinephrine reuptake inhibitor”. Besides, in data set [6] (setting [8]), the “Compound conc. in CSF” value is 179 ng/mL and the “Compound conc. in Plasma” value was 1870 ng/mL. In addition, the Plasma/CSF partitioning coefficient in data set [6] (ratio of concentration in plasma to concentration in CSF) is given as 10.4. Further, the “agonist response in the μ-opioid receptor functional assay” value on human μ-opioid receptor is “no response up to a concentration of 10 μM”.
